Molecules are shown by their SMILES. Values after ≈ are worked out from the molar mass of the structure shown. Read-outs that look alike come from different tables or passages of the source. *1 amine or outer side, *2 acyl side, *3 side chain or, on linkers, in order; H or OH if unused. Where a SMILES comes first, the peptide text is derived from it. Bridges are numbered along the chain shown (N, C = ends). [ ]: non-standard residue; d: D form. The star is where a group is joined. TBMB = c1c(C[*:1])cc(C[*:3])cc1C[*:2]; NH(CH2)11CH3 = CCCCCCCCCCCCN*; NHDecyl = CCCCCCCCCCN*

Data set [1] deals with Sheep blood. Put plainly: Hemolysis assay. Type of data set: cell-based. Here is the method: Sheep blood in Alsever’s solution (2 mL) was diluted with PBS (13 mL) and centrifuged (2,000 RPM, 5 min). The supernatant was discarded and the cells were washed with another 13 mL of PBS and centrifuged. Washing was continued until the supernatant was clear. After the final wash the supernatant was discarded and the packed cells were kept on ice. Serial dilutions of each peptide were made in 50 µl PBS with the highest tested concentration 64 µg/mL in PBS, 2%
DMSO. The packed cells (150 µL) were suspended in PBS (10 mL) and 50 µL of this suspension was added to each well. A well plate column containing 0.1% triton x-100 in DI water was used as the 100% lysis control and a second column with PBS (with 2% DMSO) served as the 0% lysis control. After incubation at 37°C for 1h the plates were centrifuged (2,000 RPM, 5 min) and 25 µL of the supernatant was added to 100 µL DI water in a flat-bottom 96-wells plate (polystyrene). […]

For data set [2], the system named is M. luteus (NCTC2665). Put plainly: microbe, parasite or virus in culture. Type of data set: cell-based, Micrococcus luteus. The conditions noted are these: for MIC: Micrococcus luteus. Here is the method:
(§1) Section 4 Biological and biochemical experiments
(§2) 4.1 Minimum inhibitory concentration assay
(§3) MIC values were determined by using the broth microdilution method. Peptides were dissolved first in DMSO and diluted with broth so that the final peptide concentration was 1024 µg/ml and the DMSO concentration was 4%. Peptide serial dilutions were made in TSB in a polypropylene 96-wells plate using 50 µl volumes. An overnight culture of the organism of interest was diluted to and OD600 of 0.01 and grown until they reach 0.5. The culture was then diluted to 1 x 10^6 CFU/ml and 50 µl of this suspension was added to each well. The highest concentrations were then 512 µg/ml peptide and 2% DMSO. The plates were incubated at the preferred growth temperature of the organism that was used and 250 rpm. […] When […]
(§4) determining the MICs of the lipidated peptides, the lipopeptides were first dissolved in DMSO and diluted with TSB so that the peptide concentration was 128 µg/ml and the DMSO concentration was 4%. After inoculation the highest peptide concentration evaluated was 64 µg/ml and the DMSO concentration was 2%. A DMSO control was tested for each strain to ensure the DMSO did not affect the growth of the particular strain. […]

The test system of data set [3] is E. faecium (VRE155). Put plainly: microbe, parasite or virus in culture. Type of data set: cell-based, Enterococcus faecium. The following applies: for MIC E. faecium (VRE155): Table 2, vancomycin-resistant isolate from hospitalized patients, broth microdilution in TSB, highest tested 64 µg/ml; for MIC: Enterococcus faecium, read-out: MIC E. faecium (VRE155). Here is the method: as §1, §2, §3, §4

In data set [4] the test system is S. pyogenes (5448). Put plainly: microbe, parasite or virus in culture. The data set is classed as cell-based. The conditions noted are these: for MIC: Streptococcus pyogenes, read-out: MIC S. pyogenes (5448). Here is the method: as §1, §2, §3, §4
Data set [5] deals with S. epidermidis (1587). Put plainly: microbe, parasite or virus in culture. The data set is classed as cell-based. The conditions noted are these: for MIC: Staphylococcus epidermidis, read-out: MIC S. epidermidis (1587). Here is the method: as §1, §2, §3, §4
Data set [6] relates to B. subtilis (168). Put plainly: microbe, parasite or virus in culture. Type of data set: cell-based. The conditions noted are these: for MIC: Bacillus subtilis, read-out: MIC B. subtilis (168). How it is done:
as §1, §2, §3, §4

The test system of data set [7] is E. faecium (E980). Put plainly: microbe, parasite or virus in culture. Type of data set: cell-based, Enterococcus faecium. The following applies: for MIC: Enterococcus faecium, read-out: MIC E. faecium (E980). Here is the method: as §1, §2, §3, §4
Data set [8] concerns E. faecium (VRE0321). Put plainly: microbe, parasite or virus in culture. The data set is classed as cell-based, Enterococcus faecium. The following applies: for MIC E. faecium (VRE0321): Table 2, vancomycin-resistant isolate from hospitalized patients, broth microdilution in TSB, highest tested 64 µg/ml; for MIC: Enterococcus faecium, read-out: MIC E. faecium (VRE0321). Here is the method: as §1, §2, §3, §4
(Dilution methods test growth across graded concentrations, often in twofold steps.)

Data set [9] has as its system E. faecium (VRE7391). Put plainly: microbe, parasite or virus in culture. Type of data set: cell-based, Enterococcus faecium. The conditions noted are these: for MIC: Enterococcus faecium, read-out: MIC E. faecium (VRE7391). Here is the method: as §1, §2, §3, §4
Data set [10] concerns E. faecium (VRE2297). Put plainly: microbe, parasite or virus in culture. Type of data set: cell-based, Enterococcus faecium. The following applies: for MIC: Enterococcus faecium, read-out: MIC E. faecium (VRE2297). How it is done: as §1, §2, §3, §4
Where [11] appears, read: Supplemental table S7, P8 with varying lipids, broth microdilution.
[12] abbreviates: Supplemental table S9, 1 hour incubation at 37 °C, lipopeptides at 32 µg/mL.
The mark [13] stands for this setting: Supplemental table S9, MIC values of Table 2 expressed in µM.
[14] abbreviates: Table 2, broth microdilution in TSB, 16 h, read visually, highest tested 64 µg/ml, 2% DMSO.
The mark [15] stands for this setting: Table 2, broth microdilution in TSB, 16 h, read visually, highest tested 64 µg/ml.
Where [16] appears, read: Table 2, vancomycin-resistant isolate from hospitalized patients, broth microdilution in TSB, 16 h, highest tested 64 µg/ml.
Where [17] appears, read: Supplemental table S9, vancomycin-resistant isolate, MIC values of Table 2 expressed in µM.

With `CCCCCCCCCCCCNC(=O)CNC(=O)[C@H]1CSCc2cc3cc(c2)CSC[C@@H](NC(=O)[C@@H](CC(C)C)NC(=O)[C@@H](CC(C)C)NC(=O)[C@@H](CO)NC(=O)[C@@H](CCC(N)=O)NC(=O)[C@@H](CC(C)C)NC(=O)[C@@H](CC(C)C)NC(=O)[C@H](NC(=O)[C@@H](C)N)CSC3)C(=O)N2CCC[C@@H]2C(=O)N[C@H](Cc2ccc(O)cc2)C(=O)N[C@H](CO)C(=O)N[C@H]([C@H](C)O)C(=O)N[C@H](Cc2c[nH]cn2)C(=O)N[C@H](CCCNC(=N)N)C(=O)N1` [Peptide P8-D-C12] (H-[dA][dC][dL][dL][dQ][dS][dL][dL][dC][dP][dY][dS][dT][dH][dR][dC]G-{NH(CH2)11CH3}; linker 2-9-16 via TBMB; N-terminus assumed), the “Hemolysis 32 µg/ml (after 1 h)” value in data set [1] (Supplemental table S7, sheep blood cells in PBS, 32 µg/ml, 1 h at 37°C, absorption at 414 nm) was 9%. Also, the “MIC M. luteus” value in data set [2] (setting [11]) lay within 4 to 8 µg/mL. For the same compound, the “MIC VRE E155” value in data set [3] (setting [11]) worked out at 8 µg/mL (≈ 3.73 µM).
Take `CCCCCCCCCCNC(=O)CNC(=O)[C@H]1CSCc2cc3cc(c2)CSC[C@@H](NC(=O)[C@@H](CC(C)C)NC(=O)[C@@H](CC(C)C)NC(=O)[C@@H](CO)NC(=O)[C@@H](CCC(N)=O)NC(=O)[C@@H](CC(C)C)NC(=O)[C@@H](CC(C)C)NC(=O)[C@H](NC(=O)[C@@H](C)N)CSC3)C(=O)N2CCC[C@@H]2C(=O)N[C@H](Cc2ccc(O)cc2)C(=O)N[C@H](CO)C(=O)N[C@H]([C@H](C)O)C(=O)N[C@H](CCCNC(=N)N)C(=O)N[C@H](C)C(=O)N1` [P8-D-(H14R, R15A)-C10] (H-[dA][dC][dL][dL][dQ][dS][dL][dL][dC][dP][dY][dS][dT][dR][dA][dC]G-NHDecyl; linker 2-9-16 via TBMB; N-terminus assumed): the Hemolysis in data set [1] (setting [12]) came out at 2%. For the same compound, the “MIC M. luteus (NCTC2665)” value in data set [2] (setting [13]) worked out at 3.9 µM (≈ 8.01 µg/mL); in data set [2] (setting [14]) it was 4 μg mL^–1. The “MIC S. pyogenes (5448)” value is 15.6 µM (≈ 32 µg/mL) in [4] (setting [13]) and 16 μg mL^–1 in data set [4] (setting [15]). Besides, the entries for the “MIC S. epidermidis (1587)” value in [5] (setting [13]) and in data set [5] (setting [15]) were > 62. 4 µM and over 64 μg mL^–1, respectively. The entries for the “MIC B. subtilis (168)” value in data set [6] (setting [13]) and in data set [6] (setting [15]) were 15.6 µM (≈ 32 µg/mL) and 16 μg mL^–1, respectively. Besides, the entries for the “MIC E. faecium (E980)” value in [7] (setting [13]) and in data set [7] (setting [15]) were 31.2 µM (≈ 64 µg/mL) and 32 μg mL^–1, respectively. In addition, the “MIC E. faecium (VRE0321)” value in data set [8] (16 h) is 8–16 μg mL^–1. Besides, the “MIC E. faecium (VRE155)” value in data set [3] (16 h) was 8–16 μg mL^–1. Moreover, in data set [9] (setting [16]), the “MIC E. faecium (VRE7391)” value is on record as 8–16 μg mL^–1. For the same compound, the “MIC E. faecium (VRE2297)” value in data set [10] (setting [17]) came to 15.6 µM (≈ 32 µg/mL); in data set [10] (setting [16]) it was 16 μg mL^–1.
Consider `CCCCCCCCCCNC(=O)CNC(=O)[C@H]1CSCc2cc3cc(c2)CSC[C@@H](NC(=O)[C@@H](CC(C)C)NC(=O)[C@@H](CC(C)C)NC(=O)[C@@H](CO)NC(=O)[C@@H](CCC(N)=O)NC(=O)[C@@H](CC(C)C)NC(=O)[C@@H](CC(C)C)NC(=O)[C@H](NC(=O)[C@@H](C)N)CSC3)C(=O)N2CCC[C@@H]2C(=O)N[C@H](Cc2ccc(O)cc2)C(=O)N[C@H](CO)C(=O)N[C@H]([C@H](C)O)C(=O)N[C@H](Cc2c[nH]cn2)C(=O)N[C@H](C)C(=O)N1` [P8-D-(R15A)-C10] (H-[dA][dC][dL][dL][dQ][dS][dL][dL][dC][dP][dY][dS][dT][dH][dA][dC]G-NHDecyl; linker 2-9-16 via TBMB; N-terminus assumed), for which the Hemolysis in data set [1] (setting [12]) is reported as 0%; in data set [1] (Table 2, sheep blood cells in PBS, lipopeptides at 32 μg mL^–1, 1 hour at 37 °C, absorption at 414 nm, 0.1% triton x-100 = 100% lysis, listed as P8-R15A-C10) it was “completely non-hemolytic”. The “MIC M. luteus (NCTC2665)” value in data set [2] (setting [13]) is 3.9 µM (≈ 7.93 µg/mL); in data set [2] (setting [14]), 4 μg mL^–1; in [2] (Table 2, broth microdilution in TSB, 16 h, read visually, highest tested 64 µg/ml, 2% DMSO, listed as P8-R15A-C10) it was “retained activity”. The “MIC S. pyogenes (5448)” value in data set [4] (setting [15]) is on record as 16 μg mL^–1. For the same compound, the “MIC S. epidermidis (1587)” value in [5] (setting [13]) was > 63. 1 µM; in data set [5] (setting [15]), over 64 μg mL^–1. Further, the “MIC B. subtilis (168)” value was over 63.1 µM in [6] (setting [13]) and over 64 μg mL^–1 in [6] (setting [15]). Moreover, the results for the “MIC E. faecium (E980)” value in data set [7] (setting [13]) and in [7] (setting [15]) were 63.1 µM (≈ 128 µg/mL) and 64 μg mL^–1, respectively. For the same compound, in data set [8] (16 h), the “MIC E. faecium (VRE0321)” value is 8–16 μg mL^–1. Also, in [3] (16 h), the “MIC E. faecium (VRE155)” value came out at 16 μg mL^–1. Besides, the “MIC E. faecium (VRE7391)” value is > 63. 1 µM in [9] (setting [17]) and over 64 μg mL^–1 in data set [9] (setting [16]). In addition, the figures for the “MIC E. faecium (VRE2297)” value in [10] (setting [17]) and in data set [10] (setting [16]) were > 63. 1 µM and over 64 μg mL^–1, respectively.
`CN[C@H](CC(C)C)C(=O)N[C@H]1C(=O)N[C@@H](CC(N)=O)C(=O)N[C@H]2C(=O)N[C@H]3C(=O)N[C@H](C(=O)N[C@H](C(=O)O)c4cc(O)cc(O)c4-c4cc3ccc4O)[C@H](O)c3ccc(c(Cl)c3)Oc3cc2cc(c3O[C@@H]2O[C@H](CO)[C@@H](O)[C@H](O)[C@H]2O[C@H]2C[C@](C)(N)[C@H](O)[C@H](C)O2)Oc2ccc(cc2Cl)[C@H]1O` [Vancomycin]: the MIC in data set [2] (NCTC2665, 16 h, read-out: MIC M. luteus (NCTC2665)) was under 1 µg/mL; in [2] (NCTC2665, read-out: MIC M. luteus (NCTC2665)), under 0.7 µM; in [4] (16 h) it was under 1 µg/mL; in data set [4] it was under 0.7 µM; in data set [5] (16 h), 2 µg/mL; in [5], 1.4 µM. Also, the MIC in data set [6] (16 h) was under 1 µg/mL; in [6], under 0.7 µM; in data set [7] (16 h), under 1 µg/mL; in [7], under 0.7 µM; in data set [8] (16 h), over 64 µg/mL; in data set [8] it was over 44.2 µM. The MIC is 64 µg/mL in [3] (16 h); 44.2 µM in data set [3]; over 64 µg/mL in data set [9] (16 h); over 44.2 µM in [9]; over 64 µg/mL in data set [10] (16 h); over 44.2 µM in [10].

These data come from publication PMC5853558, “De novo identification of lipid II binding lipopeptides with antibacterial activity against vancomycin-resistant bacteria” (Chemical Science, 2017).
